From publication PMC8707786 (Pharmaceutics, 2021)
Where two headings read alike, the source gives them in different places.

Tests used:
[1] = Pharmacokinetics of sorafenib and sorafenib N-oxide in rat plasma (HPLC-UV), sorafenib alone or with morphine; settings: for increase of AUC0–t in the presence of morphine / increase of Cmax in the presence of morphine: ISOR+MF vs. IISOR, rats; for ratio sorafenib N-oxide/sorafenib, Cmax: metabolite/parent ratio; for AUC0–t / AUC0–∞ / Cmax: rat plasma; for Cmax: mean ± SD
Experimental: (§1) The supernatant volume for each time point used to prepare the HPLC sample was 20 μL.
(§2) An ammonium acetate 0.1 M, pH = 3.4 (eluent A) and acetonitrile (eluent B) (1:1, v/v) solution were used as a mobile phase. The flow rate was set at 1.0 mL/min. […] Lapatinib was used as the internal standard (IS).

[2] = rat, in vivo
Experimental: as §1, §2

in vivo = settings: male, Wistar, rat, po, 100 mg/kg, Cl/F (apparent plasma clearance)
Experimental: as §1, §2

[3] = geometric mean ratio of the metabolite/parent ratio
[4] = geometric mean ratio, sorafenib + morphine vs. sorafenib alone
[5] = sorafenib 100 mg/kg p.o. + morphine 5 mg/kg i.p. (ISOR+MF, n = 8)
[6] = sorafenib 100 mg/kg p.o. alone (IISOR, n = 8)

Structure (SMILES): CNC(=O)c1cc(Oc2ccc(NC(=O)Nc3ccc(Cl)c(C(F)(F)F)c3)cc2)cc[n+]1[O-] [sorafenib N-oxide]
- increase of AUC0–t in the presence of morphine [1]: 61.9%
- increase of Cmax in the presence of morphine [1]: 145.5%
- increase of AUC0–t in the presence of morphine ([1]; 'higher by'): 0.6 fold
- increase of Cmax in the presence of morphine ([1]; 'higher by'): 1.5 fold
- ratio sorafenib N-oxide/sorafenib, AUC0–t: Gmean ratio (90% CI) ISOR+MF vs. IISOR [1, 3]: 1.07 (0.70; 1.65)
- ratio sorafenib N-oxide/sorafenib, AUC0–∞: Gmean ratio (90% CI) ISOR+MF vs. IISOR [1, 3]: 0.89 (0.53; 1.51)
- ratio sorafenib N-oxide/sorafenib, Cmax: Gmean ratio (90% CI) ISOR+MF vs. IISOR [1, 3]: 1.03 (0.67; 1.61)
- AUC0–t Gmean ratio (90% CI) ISOR+MF vs. IISOR [1, 4]: 1.64 (1.14; 2.36)
- AUC0–∞ Gmean ratio (90% CI) ISOR+MF vs. IISOR [1, 4]: 1.41 (0.95; 2.08)
- Cmax Gmean ratio (90% CI) ISOR+MF vs. IISOR [1, 4]: 2.15 (1.50; 3.08)
- kel Gmean ratio (90% CI) ISOR+MF vs. IISOR [1, 4]: 0.80 (0.47; 1.36)
- t1/2 Gmean ratio (90% CI) ISOR+MF vs. IISOR [1, 4]: 1.25 (0.73; 2.13)
- tmax Gmean ratio (90% CI) ISOR+MF vs. IISOR [1, 4]: 0.76 (0.41; 1.39)
- ratio sorafenib N-oxide/sorafenib, Cmax ([1]; sorafenib + morphine (ISOR+MF, n = 8)): 0.09 ± 0.07 (76.2) µg/mL
- ratio sorafenib N-oxide/sorafenib, Cmax ([1]; sorafenib alone (IISOR, n = 8)): 0.07 ± 0.02 (26.8) µg/mL
- AUC0–t [1, 5]: 6.64 ± 2.44 (36.8) µg × h/mL
- AUC0–∞ [1, 5]: 9.39 ± 2.97 (31.6) µg × h/mL
- Cmax [1, 5]: 0.27 ± 0.16 (57.5) µg/mL
- AUC0–t [1, 6]: 4.10 ± 1.56 (38.1) µg × h/mL
- AUC0–∞ [1, 6]: 8.61 ± 2.19 (25.4) µg × h/mL
- Cmax [1, 6]: 0.11 ± 0.02 (21.8) µg/mL
- kel (elimination rate constant) [1, 5]: 0.023 ± 0.012 (51.6) h^−1
- t1/2 (elimination phase) [1, 5]: 39.30 ± 22.54 (57.4) h
- tmax [1, 5]: 14.50 ± 11.40 (78.6) h
- kel (elimination rate constant) [1, 6]: 0.016 ± 0.010 (60.9) h^−1
- t1/2 (elimination phase) [1, 6]: 53.31 ± 25.23 (47.3) h
- tmax [1, 6]: 16.38 ± 8.21 (50.1) h

Structure (SMILES): CNC(=O)c1cc(Oc2ccc(NC(=O)Nc3ccc(Cl)c(C(F)(F)F)c3)cc2)ccn1 [sorafenib]
- lower clearance in the ISOR+MF group ([2]; male, Wistar): 0.4 fold
- AUC0–∞ ([2]; male, Wistar, po, 100 mg/kg): 67.05 ± 16.70 µg·h/mL
- AUC0–t/(D/kg) [2]: 1.25 ± 0.32 µg·kg·h/mL/mg
- AUC0–∞/(D/kg) [2]: 1.33 ± 0.33 µg·kg·h/mL/mg
- adverse effects ([2]; po, 100 mg/kg): did not cause any adverse effects
- CL/F (in vivo): 0.8 L/h/kg
